Reference: ChEMBL document CHEMBL5724709, “EUbOPEN Chemogenomics Library - IncuCyte” (2024)

Legend:
Assay type in all cases: toxicity, cell-based
Fibroblast = assay: Incucyte cell viability with human fibroblast; conditions: 24 h, 10 µM, compound concentration 10 uM
U2OS = assay: Incucyte cell viability with U2OS; conditions: human, 24 h, 10 µM, compound concentration 10 uM
HEK-293T = assay: Incucyte cell viability with HEK293T; conditions: human, 24 h, 10 µM, compound concentration 10 uM
Note: unitless GR value; below 1 slowed growth and below 0 cell loss.

SMILES | Growth Rate (Fibroblast; replicate number 1) | Growth Rate (Fibroblast; replicate number 2) | Growth Rate (U2OS; replicate number 1) | Growth Rate (U2OS; replicate number 2) | Growth Rate (HEK-293T; replicate number 1) | Growth Rate (HEK-293T; replicate number 2)
CC(=O)O[C@]1(C(C)=O)CC[C@H]2[C@@H]3CCC4=CC(=O)CCC4=C3[C@@H](c3ccc(N(C)C)cc3)C[C@@]21C [ULIPRISTAL ACETATE] | 0.18 | 0.99 | 0.94 | 0.78 | 0.78 | 0.96
CC(C)Nc1cc(-c2c[nH]c(C(=O)N[C@H](CO)c3cccc(Cl)c3)c2)c(Cl)cn1 [ULIXERTINIB] | 0.93 | 0.08 | 0.68 | 0.74 | 1 | –
Cc1cc(C)c(CNC(=O)c2cc(Cl)c3c(c2C)O[C@@](C)([C@H]2CC[C@H](N(C)C)CC2)O3)c(=O)[nH]1 [VALEMETOSTAT] | 1 | 0.46 | 0.4 | 0.98 | 0.77 | 0.96
COc1cc2c(Nc3ccc(Br)cc3F)ncnc2cc1OCC1CCN(C)CC1 [VANDETANIB] | 0.22 | -0.22 | -0.56 | 0.01 | -0.15 | 0.26
Cc1nc(-c2cnc(NC(C)C)n(C)c2=O)ccc1Oc1ccnc(-c2cnn(C)c2)c1 [VIMSELTINIB] | 0.29 | -0.35 | 0.42 | 0.46 | 0.39 | 0.02
